Experimental data published in PMC9127750, “Structure-based design of CDC42 effector interaction inhibitors for the treatment of cancer” (Cell reports, 2022).
Several values for one entry are separate records, joined by “and”; a condition that tells them apart may be missing. Identical values can stand only once.

Test system: WM3248 melanoma cells, 486 antibodies
Test: Reverse phase protein arrays (RPPA)
Format: cell-based, Human
Conditions: 10, normalized to 0
From the text: Pellets were snap frozen in liquid nitrogen and shipped to MD Anderson Cancer Center core RPPA facility for RPPA analysis (Table S5). Three biological replicates for each sample were generated.
Nomenclatures on the RPPA heatmaps: name_of_antibody.species_of_antibody.status_of_antibody. V - antibody validated; C - validation of antibody in progress; Q - antibody nonspecific; E – under evaluation; antibodies raised in M - mouse, G - goat, R - rabbit, or T - rat.

CN(C)c1cccc(Nc2cc(-c3ccccc3)nc(C3CCNCC3)n2)c1 [ARN22089, N1,N1-dimethyl-N3-(6-phenyl-2-(piperidin-4-yl)pyrimidin-4-yl)benzene-1,3-diamine]
FoxO3a_pS318_S321.R.C Norm_10 Average (average): 1.029
G6PD.R.V Norm_10 Average (average): 1.034
GATA3.M.V Norm_10 Average (average): 1.281
GATA6.R.V Norm_10 Average (average): 1.018
GCLC.R.C Norm_10 Average (average): 0.996
GCLM.R.V Norm_10 Average (average): 1.023
GCN5L2.R.V Norm_10 Average (average): 0.928
GRB2.R.V Norm_10 Average (average): 0.887
GRB7.R.V Norm_10 Average (average): 0.924
GSK.3B.R.C Norm_10 Average (average): 0.899
GSK.3a.b.M.V Norm_10 Average (average): 1.031
GSK.3a.b_pS21_S9.R.V Norm_10 Average (average): 1.266
Gab2.R.V Norm_10 Average (average): 1.065
Gli1.R.C Norm_10 Average (average): 1.005
Gli3.R.C Norm_10 Average (average): 1.134
Glucocorticoid.Receptor.R.V Norm_10 Average (average): 1.119
Glutamate.D1.2.R.V Norm_10 Average (average): 1.156
Granzyme.B.R.V Norm_10 Average (average): 0.968
Grp75.R.C Norm_10 Average (average): 1.129
Gys.R.V Norm_10 Average (average): 0.931
Gys_pS641.R.V Norm_10 Average (average): 0.978
H2AX_pS139.R.C Norm_10 Average (average): 0.977
H2AX_pS140.M.C Norm_10 Average (average): 1.138
HER2.M.V Norm_10 Average (average): 1.033
HER2_pY1248.R.V Norm_10 Average (average): 0.915
HER3_pY1289.R.C Norm_10 Average (average): 1.047
HES1.R.V Norm_10 Average (average): 0.974
eEF2.R.C Norm_10 Average (average): 1.492
eEF2K.R.V Norm_10 Average (average): 1.201
eIF4E.R.V Norm_10 Average (average): 0.994
eIF4E_pS209.R.V Norm_10 Average (average): 0.960
eIF4G.R.C Norm_10 Average (average): 0.972
DNMT1.R.V Norm_10 (replicates 1-3): 1.003 and 1.020 and 1.147
DRP1.R.V Norm_10 (replicates 1-3): 0.964 and 0.992
DUSP4.R.V Norm_10 (replicates 1-3): 0.853 and 0.881 and 0.939
DUSP6.R.C Norm_10 (replicates 1-3): 1.409 and 0.561
DYRK1B.R.C Norm_10 (replicates 1-3): 0.895 and 0.964 and 0.986
Dvl3.R.V Norm_10 (replicates 1-3): 0.922 and 1.053 and 0.910
E2F1.R.V Norm_10 (replicates 1-3): 1.049 and 1.123 and 1.077
E.Cadherin.R.V Norm_10 (replicates 1-3): 0.791 and 0.958
EGFR.R.V Norm_10 (replicates 1-3): 0.866 and 1.059 and 1.002
EGFR_pY1068.R.C Norm_10 (replicates 1-3): 0.894 and 0.930 and 1.047
EGFR_pY1173.R.V Norm_10 (replicates 1-3): 1.016 and 0.963 and 0.929
EMA.M.C Norm_10 (replicates 1-3): 0.676 and 1.005
ENY2.M.C Norm_10 (replicates 1-3): 0.937 and 1.132
ER.a.R.V Norm_10 (replicates 1-3): 0.989 and 0.867 and 0.907
ER.a_pS118.R.V Norm_10 (replicates 1-3): 1.111 and 0.755 and 0.869
ERCC1.R.C Norm_10 (replicates 1-3): 0.934 and 1.208 and 0.991
ERCC5.R.C Norm_10 (replicates 1-3): 0.985 and 0.864
ERRalpha.R.V Norm_10 (replicates 1-3): 0.941 and 1.106 and 0.995
EVI1.R.V Norm_10 (replicates 1-3): 0.864 and 1.146 and 1.022
Elk1_pS383.R.C Norm_10 (replicates 1-3): 1.027 and 0.931
Enolase.1.R.V Norm_10 (replicates 1-3): 0.940 and 1.265 and 1.276
Enolase.2.R.V Norm_10 (replicates 1-3): 0.995 and 1.149 and 0.982
EphA2.R.V Norm_10 (replicates 1-3): 0.867 and 0.985 and 0.905
EphA2_pS897.R.C Norm_10 (replicates 1-3): 0.664 and 0.906 and 1.028
EphA2_pY588.R.C Norm_10 (replicates 1-3): 0.917 and 0.980 and 0.925
Erk5.R.V Norm_10 (replicates 1-3): 0.835 and 0.809 and 0.986
Ets.1.R.V Norm_10 (replicates 1-3): 1.099 and 1.361 and 1.457
FABP5.R.C Norm_10 (replicates 1-3): 0.950 and 1.278 and 1.483
FAK.R.C Norm_10 (replicates 1-3): 0.896 and 0.913 and 1.054
FAK_pY397.R.V Norm_10 (replicates 1-3): 0.925 and 1.035 and 0.946
FANCD2.R.V Norm_10 (replicates 1-3): 0.931 and 0.985 and 0.874
FASN.R.V Norm_10 (replicates 1-3): 1.108 and 0.851 and 0.928
FGF.basic.R.C Norm_10 (replicates 1-3): 0.849 and 0.905 and 1.085
FN14.R.C Norm_10 (replicates 1-3): 1.121
FOXM1.R.V Norm_10 (replicates 1-3): 0.803 and 0.992 (2×)
FOXO3.R.V Norm_10 (replicates 1-3): 0.977 and 1.253 and 1.014
FRS2.alpha_pY196.R.V Norm_10 (replicates 1-3): 0.953 and 2.062 and 1.103
FTO.R.V Norm_10 (replicates 1-3): 0.987 and 1.185 and 1.127
Fibronectin.R.V Norm_10 (replicates 1-3): 0.978 and 1.062 and 1.006
FoxO3a_pS318_S321.R.C Norm_10 (replicates 1-3): 0.963 and 1.140 and 0.984
G6PD.R.V Norm_10 (replicates 1-3): 0.932 and 1.169 and 1.001
GATA3.M.V Norm_10 (replicates 1-3): 1.235 and 1.401 and 1.207
GATA6.R.V Norm_10 (replicates 1-3): 1.020 and 1.082 and 0.952
GCLC.R.C Norm_10 (replicates 1-3): 0.939 and 0.967 and 1.083
GCLM.R.V Norm_10 (replicates 1-3): 0.965 and 1.111 and 0.992
GCN5L2.R.V Norm_10 (replicates 1-3): 0.997 and 0.898 and 0.890
GGPS1.M.V Norm_10 (replicates 1-3): 0.913 and 1.085 and 1.264
GRB2.R.V Norm_10 (replicates 1-3): 0.867 and 0.876 and 0.919
GRB7.R.V Norm_10 (replicates 1-3): 0.829 and 0.838 and 1.106
